Measured values as given in patent publication US10975056B2 (GlaxoSmithKline Intellectual Property Development Limited, priority 2016, dated 2021).
Structures can show the parent of a compound that is named as a salt.

How the values were obtained:
[1] = system: erythroid progenitor cells (EPCs); assay: Fetal hemoglobin (HbF) ELISA in day 7 erythroid progenitor cells; assay type: cell-based, human; conditions: Homo sapiens, Erythroid progenitor cell, HbF ELISA, day 7 EPCs, 5 days; read-out: EPC ELISA (pEC50 category) (converted);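 further: for fetal hemoglobin induction normalized to vehicle-treated cells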
Outline: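 Read-out was OD450 from an HRP/TMB sandwich ELISA on lysates, normalized to DMSO-only control wells. Thawed day 7 EPCs from human marrow CD34+ cells had been treated for 5 days at 37° C with Compound A, 22 concentrations […].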

DNMT1 = DNMT1 (Homo sapiens, UniProt P26358); assay: DNMT1 biochemical activity, breaklight assay and/or SPA assay; conditions: for DNMT1 BioChemical (pIC50 category): binned activity in either the breaklight or the SPA assay
Chain of DNMT1 (P26358 whole entry, looked up): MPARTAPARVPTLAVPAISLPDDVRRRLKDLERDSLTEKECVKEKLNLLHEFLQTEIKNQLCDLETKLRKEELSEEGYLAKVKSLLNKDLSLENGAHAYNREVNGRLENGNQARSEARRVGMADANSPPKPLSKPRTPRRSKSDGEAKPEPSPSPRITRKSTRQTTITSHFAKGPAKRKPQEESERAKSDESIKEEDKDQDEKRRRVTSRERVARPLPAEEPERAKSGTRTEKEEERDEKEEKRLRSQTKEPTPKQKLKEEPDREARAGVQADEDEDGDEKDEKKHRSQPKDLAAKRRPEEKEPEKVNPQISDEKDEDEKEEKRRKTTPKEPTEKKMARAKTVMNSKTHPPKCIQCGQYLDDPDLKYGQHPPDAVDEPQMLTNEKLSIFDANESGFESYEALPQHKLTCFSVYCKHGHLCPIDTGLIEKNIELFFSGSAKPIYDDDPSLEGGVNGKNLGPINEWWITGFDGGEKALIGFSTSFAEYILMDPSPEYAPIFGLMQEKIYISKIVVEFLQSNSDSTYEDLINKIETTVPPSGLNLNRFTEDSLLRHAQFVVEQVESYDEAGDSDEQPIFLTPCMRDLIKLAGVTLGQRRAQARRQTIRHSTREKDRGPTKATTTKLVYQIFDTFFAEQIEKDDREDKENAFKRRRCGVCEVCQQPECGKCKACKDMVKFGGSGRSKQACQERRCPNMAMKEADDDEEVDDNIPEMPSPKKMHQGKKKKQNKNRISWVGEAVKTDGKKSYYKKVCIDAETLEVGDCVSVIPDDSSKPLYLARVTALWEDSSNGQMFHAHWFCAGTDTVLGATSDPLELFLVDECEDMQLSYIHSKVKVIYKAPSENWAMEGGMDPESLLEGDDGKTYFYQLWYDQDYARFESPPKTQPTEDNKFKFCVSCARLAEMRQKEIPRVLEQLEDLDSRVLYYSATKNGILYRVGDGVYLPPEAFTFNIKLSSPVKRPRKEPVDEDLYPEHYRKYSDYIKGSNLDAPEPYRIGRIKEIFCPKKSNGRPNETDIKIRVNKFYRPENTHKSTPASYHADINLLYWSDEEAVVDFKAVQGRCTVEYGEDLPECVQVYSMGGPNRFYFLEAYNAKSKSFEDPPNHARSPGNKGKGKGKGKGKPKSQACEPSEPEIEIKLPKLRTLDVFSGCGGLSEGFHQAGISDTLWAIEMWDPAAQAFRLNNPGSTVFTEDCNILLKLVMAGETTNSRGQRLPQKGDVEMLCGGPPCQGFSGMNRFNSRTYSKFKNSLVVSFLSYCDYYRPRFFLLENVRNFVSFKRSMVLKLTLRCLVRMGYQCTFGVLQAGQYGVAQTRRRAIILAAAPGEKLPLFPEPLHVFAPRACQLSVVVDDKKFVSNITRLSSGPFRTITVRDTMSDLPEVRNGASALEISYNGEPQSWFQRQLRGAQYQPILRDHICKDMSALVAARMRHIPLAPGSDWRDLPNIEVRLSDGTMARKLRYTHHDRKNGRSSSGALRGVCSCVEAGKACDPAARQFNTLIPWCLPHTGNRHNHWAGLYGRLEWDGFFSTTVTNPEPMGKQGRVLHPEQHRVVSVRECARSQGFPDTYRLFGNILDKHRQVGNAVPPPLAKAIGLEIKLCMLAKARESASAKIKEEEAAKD

| SMILES | EC50 [1] [µM] | DNMT1 BioChemical (pIC50 category) (DNMT1) | average pIC50 against DNMT1 (DNMT1; breaklight assay and/or SPA assay, repeated experimental runs) | IC50 (DNMT1; breaklight assay and/or SPA assay, repeated experimental runs, read-out: average pIC50 against DNMT1 (converted)) [µM] |
| --- | --- | --- | --- | --- |
| CCc1c(C#N)c(SC(C(N)=O)c2ccccc2)nc(N(C)CC(=O)N2C[C@@H](CO)[C@@H](O)C2)c1C#N (stereo partly drawn) [Example 637, 2-((3,5-dicyano-4-ethyl-6-((2-((3R,4S)-3-hydroxy-4-(hydroxymethyl)pyrrolidin-1-yl)-2-oxoethyl)(methyl)amino)pyridin-2-yl)thio)-2-phenylacetamide] | 1 to 31.6 | D (Category D: ≥6.5) | – | – |
| CCc1c(C#N)c(S[C@@H](C(N)=O)c2ccccc2)nc(N2CC[C@](F)(CN)C2)c1C#N [Example 638, (R)-2-((6-((S)-3-(aminomethyl)-3-fluoropyrrolidin-1-yl)-3,5-dicyano-4-ethylpyridin-2-yl)thio)-2-phenylacetamide] | 0.316 to 1 | D (Category D: ≥6.5) | – | – |
| CN(CC(=O)NC(CO)CO)c1nc(SC(C(N)=O)c2ccccc2)c(C#N)c(C2CC2)c1C#N (stereo not drawn) [Example 639, 2-((6-((2-amino-2-oxo-1-phenylethyl)thio)-3,5-dicyano-4-cyclopropylpyridin-2-yl)(methyl)amino)-N-(1,3-dihydroxypropan-2-yl)acetamide] | 1 to 31.6 | D (Category D: ≥6.5) | – | – |
| CCc1c(C#N)c(SC(C(N)=O)c2ccccc2)nc(N2CCC[C@H](NC3COC3)C2)c1C#N (stereo partly drawn) [Example 640, 2-((3,5-dicyano-4-ethyl-6-((S)-3-(oxetan-3-ylamino)piperidin-1-yl)pyridin-2-yl)thio)-2-phenylacetamide] | < 0.316 | D (Category D: ≥6.5) | – | – |
| CN(CC(=O)N(CCO)CCO)c1nc(SC(C(N)=O)c2ccccc2)c(C#N)c(C2CC2)c1C#N (stereo not drawn) [Example 641, 2-((6-((2-amino-2-oxo-1-phenylethyl)thio)-3,5-dicyano-4-cyclopropylpyridin-2-yl)(methyl)amino)-N,N-bis(2-hydroxyethyl)acetamide] | 1 to 31.6 | D (Category D: ≥6.5) | – | – |
| N#Cc1c(SC(C(N)=O)c2ccccc2)nc(N2CCC(NC(=O)CN)CC2)c(C#N)c1C1CC1 (stereo not drawn) [Example 642, 2-amino-N-(1-(6-((2-amino-2-oxo-1-phenylethyl)thio)-3,5-dicyano-4-cyclopropylpyridin-2-yl)piperidin-4-yl)acetamide formate] | 1 to 31.6 | D (Category D: ≥6.5) | – | – |
| CCc1c(C#N)c(SC(C(N)=O)c2ccccc2)nc(N2CCC(C)(NCCO)CC2)c1C#N (stereo not drawn) [Example 643, 2-((3,5-dicyano-4-ethyl-6-(4-((2-hydroxyethyl)amino)-4-methylpiperidin-1-yl)pyridin-2-yl)thio)-2-phenylacetamide] | < 0.316 | D (Category D: ≥6.5) | – | – |
| CCc1c(C#N)c(SC(C(N)=O)c2ccccc2)nc(N(C)CCONC(=N)N)c1C#N (stereo not drawn) [Example 644, 2-((3,5-dicyano-4-ethyl-6-((2-(guanidinooxy)ethyl)(methyl)amino)pyridin-2-yl)thio)-2-phenylacetamide] | 1 to 31.6 | D (Category D: ≥6.5) | – | – |
| CCc1c(C#N)c(SC(C(N)=O)c2ccccc2)nc(N2CCC(NCCN)CC2)c1C#N (stereo not drawn) [Example 645, 2-((6-(4-((2-aminoethyl)amino)piperidin-1-yl)-3,5-dicyano-4-ethylpyridin-2-yl)thio)-2-phenylacetamide dihydrochloride] | 0.316 to 1 | D (Category D: ≥6.5) | – | – |
| CCc1c(C#N)c(SC(C(N)=O)c2ccccc2)nc(N(C)CC(=O)N2CCO[C@H](CO)C2)c1C#N (stereo partly drawn) [Example 646, 2-((3,5-dicyano-4-ethyl-6-((2-((S)-2-(hydroxymethyl)morpholino)-2-oxoethyl)(methyl)amino)pyridin-2-yl)thio)-2-phenylacetamide] | < 0.316 | D (Category D: ≥6.5) | – | – |
| CCc1c(C#N)c(SC(C(N)=O)c2ccccc2)nc(N(C)CC(=O)N2C[C@@H](O)[C@@H](O)C2)c1C#N (stereo partly drawn) [Example 647, 2-((3,5-dicyano-6-((2-((cis)-3,4-dihydroxypyrrolidin-1-yl)-2-oxoethyl)(methyl)amino)-4-ethylpyridin-2-yl)thio)-2-phenylacetamide] | 0.316 to 1 | D (Category D: ≥6.5) | – | – |
| CCc1c(C#N)c(SC(C(N)=O)c2ccccc2)nc(N(C)CC(=O)N2CC[C@H](CO)C2)c1C#N (stereo partly drawn) [Example 648, 2-((3,5-dicyano-4-ethyl-6-((2-((S)-3-(hydroxymethyl)pyrrolidin-1-yl)-2-oxoethyl)(methyl)amino)pyridin-2-yl)thio)-2-phenylacetamide] | < 0.316 | D (Category D: ≥6.5) | – | – |
| CCc1c(C#N)c(SC(C(N)=O)c2ccccc2)nc(N(C)CC(=O)N2C[C@@H](CO)[C@H](O)C2)c1C#N (stereo partly drawn) [Example 649] | 1 to 31.6 | D (Category D: ≥6.5) | > 6.5 | 0.126 |
| CCc1c(C#N)c(SCc2ccc(N(C)S(C)(=O)=O)cc2)nc(N2CC[C@H](CNC(=O)CN)C2)c1C#N [Example 650, (R)-2-amino-N-((1-(3,5-dicyano-4-ethyl-6-((4-(N-methylmethylsulfonamido)benzyl)thio)pyridin-2-yl)pyrrolidin-3-yl)methyl)acetamide] | 1 to 31.6 | D (Category D: ≥6.5) | – | – |
| CCc1c(C#N)c(SC(C(N)=O)c2ccccc2)nc(N2CCC[C@H](NCC(C)(C)C)C2)c1C#N (stereo partly drawn) [Example 651, 2-((3,5-dicyano-4-ethyl-6-((S)-3-(neopentylamino)piperidin-1-yl)pyridin-2-yl)thio)-2-phenylacetamide] | < 0.316 | D (Category D: ≥6.5) | – | – |
| CCc1c(C#N)c(SC(C(N)=O)c2ccccc2)nc(N(C)CC(=O)N2C[C@@H](O)[C@H](O)C2)c1C#N (stereo partly drawn) [Example 653, 2-((3,5-dicyano-6-((2-((3R,4R)-3,4-dihydroxypyrrolidin-1-yl)-2-oxoethyl)(methyl)amino)-4-ethylpyridin-2-yl)thio)-2-phenylacetamide] | 1 to 31.6 | D (Category D: ≥6.5) | – | – |
| CCc1c(C#N)c(S[C@@H](C(N)=O)c2ccccc2)nc(N2CC[C@@](O)(CO)C2)c1C#N [Example 654, (R)-2-((3,5-dicyano-4-ethyl-6-((S)-3-hydroxy-3-(hydroxymethyl)pyrrolidin-1-yl)pyridin-2-yl)thio)-2-phenylacetamide] | 1 to 31.6 | D (Category D: ≥6.5) | – | – |
| C[C@H](N)C(=O)NC1CCN(c2nc(SC(C(N)=O)c3ccccc3)c(C#N)c(C3CC3)c2C#N)CC1 (stereo partly drawn) [Example 655, (2S)-2-amino-N-(1-(6-((2-amino-2-oxo-1-phenylethyl)thio)-3,5-dicyano-4-cyclopropylpyridin-2-yl)piperidin-4-yl)propanamide] | 0.316 to 1 | D (Category D: ≥6.5) | – | – |
| N#Cc1c(SC(C(N)=O)c2ccccc2)nc(N2CCC(OCCN)CC2)c(C#N)c1C1CC1 (stereo not drawn) [Example 656, 2-((6-(4-(2-aminoethoxy)piperidin-1-yl)-3,5-dicyano-4-cyclopropylpyridin-2-yl)thio)-2-phenylacetamide] | 1 to 31.6 | D (Category D: ≥6.5) | – | – |
| N#Cc1c(SC(C(N)=O)c2ccccc2)nc(N2CCC(NCCO)CC2)c(C#N)c1C1CC1 (stereo not drawn) [Example 657, 2-((3,5-dicyano-4-cyclopropyl-6-(4-((2-hydroxyethyl)amino)piperidin-1-yl)pyridin-2-yl)thio)-2-phenylacetamide] | 1 to 31.6 | D (Category D: ≥6.5) | – | – |
| CCc1c(C#N)c(SC(C(N)=O)c2ccccc2)nc(N(C)CC(=O)NC(CO)CO)c1C#N (stereo not drawn) [Example 658, 2-((6-((2-amino-2-oxo-1-phenylethyl)thio)-3,5-dicyano-4-ethylpyridin-2-yl)(methyl)amino)-N-(1,3-dihydroxypropan-2-yl)acetamide] | 1 to 31.6 | D (Category D: ≥6.5) | – | – |
| CCc1c(C#N)c(SC(C(N)=O)c2ccccc2)nc(N(C)CC(=O)N2C[C@H](O)C[C@H](O)C2)c1C#N (stereo partly drawn) [Example 659, 2-((3,5-dicyano-6-((2-((3R,5S)-3,5-dihydroxypiperidin-1-yl)-2-oxoethyl)(methyl)amino)-4-ethylpyridin-2-yl)thio)-2-phenylacetamide] | < 0.316 | D (Category D: ≥6.5) | – | – |
| CCc1c(C#N)c(SC(C(N)=O)c2ccccc2)nc(N(C)CC(=O)N2C[C@H](O)[C@@H](O)C2)c1C#N (stereo partly drawn) [Example 660, 2-((3,5-dicyano-6-((2-((3S,4S)-3,4-dihydroxypyrrolidin-1-yl)-2-oxoethyl)(methyl)amino)-4-ethylpyridin-2-yl)thio)-2-phenylacetamide] | 1 to 31.6 | D (Category D: ≥6.5) | – | – |
| CCc1c(C#N)c(SC(C(N)=O)c2ccccc2)nc(N2CCC(CO)(NCCO)CC2)c1C#N (stereo not drawn) [Example 661, 2-((3,5-dicyano-4-ethyl-6-(4-((2-hydroxyethyl)amino)-4-(hydroxymethyl)piperidin-1-yl)pyridin-2-yl)thio)-2-phenylacetamide] | 1 to 31.6 | D (Category D: ≥6.5) | – | – |
| CCc1c(C#N)c(SC(C(N)=O)c2ccccc2)nc(N(C)CC(=O)N2CCO[C@@H](CO)C2)c1C#N (stereo partly drawn) [Example 662, 2-((3,5-dicyano-4-ethyl-6-((2-((R)-2-(hydroxymethyl)morpholino)-2-oxoethyl)(methyl)amino)pyridin-2-yl)thio)-2-phenylacetamide] | < 0.316 | D (Category D: ≥6.5) | – | – |
| CCc1c(C#N)c(SC(C(N)=O)c2ccccc2)nc(N(C)CC(=O)NOC)c1C#N (stereo not drawn) [Example 663, 2-((6-((2-amino-2-oxo-1-phenylethyl)thio)-3,5-dicyano-4-ethylpyridin-2-yl)(methyl)amino)-N-methoxyacetamide] | < 0.316 | D (Category D: ≥6.5) | – | – |
